# Laboratory results from ChEMBL document CHEMBL3507680, “University of Dundee, Gates Library screen for HepG2 cell viability”.
# Assay: Human HepG2 cell viability assay in 384 well format
# Format: toxicity, cell-based
# Parameters: dose 125 nL, time 70.5 hour; concentration not given beside the values
# Conditions: HepG2 cells, read-out: Inhibition
smiles,measurement,value
Cc1ncoc1C(=O)N1CCCC(C(=O)c2cccc(OC(C)C)c2)C1 (centres undefined),cytotoxicity at 70.5 h,-8.43%
N[C@H]1CC[C@@H](Nc2nccc(CCC(F)(F)F)n2)CC1,cytotoxicity at 70.5 h,-2.71%
CCc1nnc(CN2CCC3(CCC(=O)N(C4CCCC4)C3)CC2)o1,cytotoxicity at 70.5 h,-7.05%
Cc1ccc2c(c1)c(CNC(=O)C1CCN(C(=O)C3CC3)CC1)nn2C,cytotoxicity at 70.5 h,-3.75%
CCn1cc(-c2c(C)c(C3CCOC(C)(C)C3)nc(N)c2C#N)cn1 (centres undefined),cytotoxicity at 70.5 h,9.87%
CCc1cc(N2C[C@H](C3CC3)[C@@H](N)C2)nc(N2CCCC2)n1,cytotoxicity at 70.5 h,18.8%
O=C(NCCN1CCCCC1CO)c1cc(-c2ccccc2)on1 (centres undefined),cytotoxicity at 70.5 h,-4.82%
CC(C)c1nc(CN(C)C(=O)CCS(=O)(=O)c2ccccc2)no1,cytotoxicity at 70.5 h,-8.68%
COc1ccc(C(=O)N2C[C@@H](O)[C@H](NCCc3ncccc3C)C2)cc1,cytotoxicity at 70.5 h,-10.6%
N[C@H]1CN(S(=O)(=O)Cc2ccccc2)C[C@@H]1C1CC1,cytotoxicity at 70.5 h,-6.71%
CSCC[C@@H](CO)Nc1nc(-c2ccccn2)nc2c1c(C)nn2C,cytotoxicity at 70.5 h,-0.626%
Cc1ccc(CN(C)C(=O)c2cc(Cn3ccnc3C(C)C)[nH]n2)o1,cytotoxicity at 70.5 h,3.51%
COCCN(CC1CC1)c1nc(CCN)nc2ccccc12,cytotoxicity at 70.5 h,-4.8%
Cc1cnc(CNc2ncc(C)c(-c3cnn(C)c3)n2)cn1,cytotoxicity at 70.5 h,-14.1%
COc1cc(C)cc(C(C(=O)O)N(C)CCN2CCCC2)c1OC (centres undefined),cytotoxicity at 70.5 h,-2.88%
CNc1ccnc(N2CC[C@@](O)(C3CCOCC3)[C@H](C)C2)n1,cytotoxicity at 70.5 h,-7.76%
Cc1cc(C(F)(F)F)nc(CNC(=O)C2CCCCCN2C)n1 (centres undefined),cytotoxicity at 70.5 h,2.11%
COc1cccc2c1OCCCN(Cc1ncccc1C(=O)O)C2,cytotoxicity at 70.5 h,-3.58%
O=C1N(CC2CCCCC2)CCCC1(O)CN1CCc2[nH]ncc2C1 (centres undefined),cytotoxicity at 70.5 h,-7.48%
c1ccc(CN(Cc2ncc[nH]2)Cc2nccs2)cc1,cytotoxicity at 70.5 h,-14.7%
Cc1cc(-c2ccc(C(C)N3CCCCC3)cc2)cnc1N (centres undefined),cytotoxicity at 70.5 h,-1.07%
CCc1ncc2c(n1)CN(C(=O)CC(C)NC(C)=O)C2 (centres undefined),cytotoxicity at 70.5 h,-5.94%
CCn1c(CN(C)C)nnc1C1CCN(Cc2ccc(Cl)cc2F)CC1,cytotoxicity at 70.5 h,-0.622%
COc1cccc(Cn2ncnc2CCSC)c1,cytotoxicity at 70.5 h,-12.2%
CN(Cc1ccccc1)CC1(O)CCCN(CCC2CCCCC2)C1=O (centres undefined),cytotoxicity at 70.5 h,29.6%
CN1CCCN(C[C@@H]2CN(C(=O)N3CCOCC3)C[C@@H]2CO)CC1,cytotoxicity at 70.5 h,-3.11%
COCC(=O)N1CC[C@]2(O)CCN(Cc3cccnc3OC)C[C@@H]2C1,cytotoxicity at 70.5 h,-7.29%
Cc1noc(-c2ccc(N(C)Cc3ccncn3)nc2)n1,cytotoxicity at 70.5 h,-5.88%
CNS(=O)(=O)c1ccc(CN2CCCN(Cc3ccncc3)CC2)cc1,cytotoxicity at 70.5 h,16.9%
CN1CCN(C[C@@H]2CN(C3Cc4ccccc4C3)C[C@@H]2CO)CC1,cytotoxicity at 70.5 h,22.1%
Cc1ncsc1CN(Cc1ccccc1)Cc1ncc[nH]1,cytotoxicity at 70.5 h,17.5%
CN(C)CCn1ccnc1C1CCN(C(=O)CCC(F)(F)F)CC1,cytotoxicity at 70.5 h,-7.92%
O=C(O)[C@H]1C[C@H](C(=O)NC2CC2)CN(Cc2ccc(-c3cc[nH]n3)s2)C1,cytotoxicity at 70.5 h,11.9%
CCCc1nc(N2CCCN(c3ncccn3)CC2)c2cnn(C)c2n1,cytotoxicity at 70.5 h,4.78%
Cc1cc2c(=O)n(CCOCCO)cnc2s1,cytotoxicity at 70.5 h,-5.77%
CCN(Cc1nc(COC)no1)C(=O)CCNC(=O)c1ccccc1F,cytotoxicity at 70.5 h,22.4%
Cc1nc(-c2cccc(N3CCC(NC4CCSC4)CC3)c2)cs1 (centres undefined),cytotoxicity at 70.5 h,-1.58%
OC1(CNCCc2nc(Cc3ccccc3)no2)CNCCOC1 (centres undefined),cytotoxicity at 70.5 h,0.264%
Cc1ccc(N2CCC(C(=O)O)(n3ccc(C(C)C)n3)CC2)nn1,cytotoxicity at 70.5 h,-1.26%
OCCN1CCN(Cc2cnc3c(-c4ccccc4)cnn3c2)CC1,cytotoxicity at 70.5 h,6.6%
CC1(C)CN(C(=O)c2cnc(CN3CCCC3)s2)CC[C@]1(C)O,cytotoxicity at 70.5 h,-0.621%
CC(C)c1nc(CN(C)Cc2ccc(O)c(Cl)c2)cs1,cytotoxicity at 70.5 h,-13.5%
CCc1ncc(C(=O)N(CCOC)Cc2nccs2)cn1,cytotoxicity at 70.5 h,5.06%
CCn1c(N)nc2cc(C(=O)N3CCN(c4nccs4)CC3)cnc21,cytotoxicity at 70.5 h,-6.84%
